These are literature values, as cited in patent US9861647B2 (Prelief Inc., priority 2007, dated 2018).

Like-named read-outs stand apart in the source and are kept apart here.

The data set concerns ragweed sensitized Beagle dogs. The settings on record: Rudolph et al., 2003, cited from earlier work.

In the case of `CN(C)CCC(c1ccc(Cl)cc1)c1ccccn1` (centres unmarked) [chlorpheniramine], the RW-induced nasal congestion entry (chlorpheniramine 10 mg/kg) was “can prevent the development of RW-induced nasal congestion”.
Turning to `CN[C@@H](C)[C@@H](O)c1ccccc1` [pseudoephedrine], the RW-induced nasal congestion result (pseudoephedrine 3 mg/kg) is listed as “can prevent the development of RW-induced nasal congestion”.
